Source: patent US4762840A, “Pyrimido[2,1-b]benzothiazoles having antiallergic activity” (Roussel Uclaf, priority 1984, dated 1988)

Test system: lungs
Assay: Antigen-induced elevation of lung perfusion pressure (isolated perfused sensitized lung, ovalbumen)
Set-up: species or system guinea pig (Dunkin Hartley)
Settings: Cavia porcellus; perfused lungs of ovalbumen-sensitized guinea pigs; compound in krebs fluid 30 minutes prior to second antigen dose (15 μg ovalbumen); at least four lungs per concentration; read-out: IC50 (inhibition of antigen induced broncho-constriction)
Procedure: Antigen-induced elevation of lung perfusion pressure
Male Dunkin Hartley guinea pigs (Porcellus) weighing between 450-700 g were used (four per test concentration) and were housed in cages. The animals were sensitized by two weekly exposures to 1% W/V aerosol ovalbumen. The animals were anaesthetized with 2.5 mg/kg diazepam i.p. and 1 ml/kg Hyponorm i.m. Following anaethesia, the animals were exsanguinated by severing both carotid arteries and the chest was opened and the lungs removed, split into two at the carina and both cannulated via the main lobar bronchus and connected to a perfusion system. The lungs were perfused with aerated krebs fluid (95% O2 :5% CO2) at 37° C. and 5 μg in 0.1 ml Ovalbumen was injected through an injection port proximal to each lung. Elevation of perfusion pressure by the antigen was recorded and sixty minutes later, 15 μg of ovalbumen were administered. The test compounds were added to the krebs fluid reservoir thirty minutes prior to the second antigen dose. For each weekly batch of animals used, control measurements were made without treatment (n=10 ). The second antigen response was expressed as a percentage of the first. For each test, at least four lungs from four different animals were used per concentration. The percentage inhibition of antigen induced broncho-constriction was calculated.

| Structure (SMILES) | IC50 [µM] |
| --- | --- |
| CC(C(=O)OC(C)(C)C)c1ccc2c(c1)sc1nc(=O)cc(-c3ccccc3)n12 (stereo not drawn) [Example 39, t-Butyl α-methyl-4-phenyl-2-oxo-2H-pyrimido[2,1-b]benzothiazole-8-acetate] | 0.1 |
| CCOC(=O)C(CC)(CC)c1ccc2c(c1)sc1nc(=O)cc(-c3ccccc3)n12 [Example 40, Ethyl α,α-diethyl-4-phenyl-2-oxo-2H-pyrimido[2,1-b]benzothiazole-8-acetate] | 10 to 100 |
| CCCC(CC)(C(=O)OCC)c1ccc2c(c1)sc1nc(=O)cc(-c3ccccc3)n12 (stereo not drawn) [Example 41, Ethyl α-ethyl-α-propyl-4-phenyl-2-oxo-2H-pyrimido[2,1-b]benzothiazole-8-acetate] | 10 to 100 |
| CCCCC(C)(C(=O)OCC)c1ccc2c(c1)sc1nc(=O)cc(-c3ccccc3)n12 (stereo not drawn) [Example 42, Ethyl α-butyl-α-methyl-4-phenyl-2-oxo-2H-pyrimido[2,1-b]benzothiazole-8-acetate] | 10 to 100 |
| CC(C(=O)OCC(C)(C)C)c1ccc2c(c1)sc1nc(=O)cc(-c3ccccc3)n12 (stereo not drawn) [Example 43, 2,2-Dimethylpropyl α-methyl-4-phenyl-2-oxo-2H-pyrimido[2,1-b]benzothiazole-8-acetate] | 0.1 |
| CN(C)C(=O)Cc1ccc2c(c1)sc1nc(=O)cc(-c3ccccc3)n12 [Example 44, N,N-dimethyl-2-oxo-4-phenyl-2H-pyrimido[2,1-b]benzothiazole-8-acetamide] | 10 to 100 |
| CCNC(=O)Cc1ccc2c(c1)sc1nc(=O)cc(-c3ccccc3)n12 [Example 45, N-ethyl-2-oxo-4-phenyl-2H-pyrimido[2,1-b]benzothiazole-8-acetamide] | 10 to 100 |
| O=C(Cc1ccc2c(c1)sc1nc(=O)cc(-c3ccccc3)n12)N1CCOCC1 [Example 46, 1-(N-morpholino)-2-(2-oxo-4-phenyl-2H-pyrimido[2,1-b]benzothiazole-8-yl)-ethanone] | > 100 |
| CCN(CC)C(=O)Cc1ccc2c(c1)sc1nc(=O)cc(-c3ccccc3)n12 [Example 47, N,N-diethyl-2-oxo-4-phenyl-2H-pyrimido-[2,1-b]benzothiazole-8-acetamide] | 10 |
| O=C(Cc1ccc2c(c1)sc1nc(=O)cc(-c3ccccc3)n12)N1CCCCC1 [Example 48, 1-(N-piperidino)-2-(2-oxo-4-phenyl-2H-pyrimido[2,1-b]benzothiazole-8-yl)-ethanone] | 10 to 100 |
| CC(C(=O)OC1(C)CCCCC1)c1ccc2c(c1)sc1nc(=O)cc(-c3ccccc3)n12 (stereo not drawn) [Example 49, 1-Methylcyclohexyl α-methyl-2-oxo-4-phenyl-2H-pyrimido[2,1-b]benzothiazole-8-acetate] | 1 to 10 |
| CC(C(=O)OC12CC3CC(CC(C3)C1)C2)c1ccc2c(c1)sc1nc(=O)cc(-c3ccccc3)n12 (stereo not drawn) [Example 50, 1-Adamantyl α-methyl-2-oxo-4-phenyl-2H-pyrimido[2,1-b]benzothiazole-8-acetate] | ≤ 1 |
